We go through 35 compounds from patent US6376670B1, “Quinoline-indole antimicrobial agents, uses and compositions related thereto” (Sepracor Inc., priority 1997, dated 2002).

What all share (assay): Determination of MIC values (BHI broth, 96 well microtiter plate)
What all share (assay type): cell-based

One assay relates to Streptococcus pneumoniae. The settings on record: Streptococcus pneumoniae, BHI broth, read-out: MIC S. pneu. The method in brief:
(§1)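 Here, each test series spans final concentrations of 25 to 0.39 µg/mL in BHI broth, with DMSO as diluent. Plates seeded at 10^5–10^6 cells/mL are kept at 37° C and approx. 7-10% CO2 for about 16 hours before growth is scored.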

Assay [1] concerns vancomycin-resistant Enterococcus spp. (VRE). The settings on record: Enterococcus, VRE, BHI broth, read-out: MIC VREF. The method in brief: as §1
Assay [2] relates to methicillin-resistant Staphylococcus aureus (MRSA). The settings on record: Staphylococcus aureus, MRSA, BHI broth, read-out: MIC MRSA. The method in brief:
as §1

Where [3] appears, read: 37° C., overnight (about 16 hours).
Setting [4] is: 16 h, 37° C., overnight (about 16 hours).

Each structure is given as a SMILES string. ≈ marks a conversion by molar mass, not a printed value. Like-named read-outs stand apart in the source and are kept apart here.

Take `Cc1ccc2[nH]c(C)c(-c3ccc4cccc(C)c4n3)c2c1` [Example 426]: the MIC (as a rule, the lowest concentration found to suppress growth) was under 25 µg/mL in the assay with Streptococcus pneumoniae (37° C., about 16 hours); over 25 µg/mL in assay [1] (16 h, 37° C., about 16 hours); under 25 µg/mL in assay [2] (16 h, 37° C., about 16 hours).

Take `Cn1cc(-c2cc(C(=O)NCCN)c3cc(C#CCN4CCCC4)ccc3n2)c2cc(Br)ccc21` [Example 403]: the MIC in the assay with Streptococcus pneumoniae (37° C., about 16 hours) was under 7 µg/mL; in assay [1] (16 h, 37° C., about 16 hours), under 7 µg/mL; in assay [2] (16 h, 37° C., about 16 hours) it was under 7 µg/mL.

In the case of `NCc1ccc(CNC(=O)c2cc(-c3c[nH]c4ccc(Br)cc34)nc3ccc(-c4ccccc4)cc23)cc1` [Example 96], the MIC (in the assay on Streptococcus pneumoniae (setting [3]); in assay [1] (setting [4]); in assay [2] (setting [4])) was under 7 µg/mL throughout.

On to `O=[N+]([O-])c1ccc2[nH]cc(-c3cc(Cl)c4ccccc4n3)c2c1` [Example 349], for which the MIC with Streptococcus pneumoniae (S. pneu, overnight 37° C.) was over 25 µg/mL; in assay [1] (VREF, overnight 37° C.), over 25 µg/mL; in assay [2] (overnight 37° C.), over 25 µg/mL.

Consider `COc1ccc2nc(-c3c[nH]c4ccc(Br)cc34)ccc2c1` [Example 412], for which the minimum inhibitory concentration (MIC) in the assay on Streptococcus pneumoniae (37° C., about 16 hours) was over 25 µg/mL; in assay [1] (16 h, 37° C., about 16 hours) it was over 25 µg/mL; in assay [2] (16 h, 37° C., about 16 hours), under 7 µg/mL.

Consider `NCc1ccc(CNC(=O)c2cc(-c3c[nH]c4ccc(Br)cc34)nc3ccc(C#CCN4CCNCC4)cc23)cc1` [Example 208], for which the minimum inhibitory concentration (MIC) in the assay with Streptococcus pneumoniae (S. pneu, overnight 37° C.) was under 25 µg/mL; in assay [1] (VREF, overnight 37° C.) it was under 25 µg/mL; in assay [2] (overnight 37° C.), under 7 µg/mL.

With `Clc1ccc2nc(-c3c[nH]c4ccccc34)ccc2c1` [Example 164], the MIC in the assay with Streptococcus pneumoniae (setting [3]) was under 7 µg/mL; in assay [1] (setting [4]), under 5 µg/mL; in assay [2] (setting [4]), under 7 µg/mL.

As for `Clc1cc(-c2c(-c3ccccc3)[nH]c3ccccc23)nc2ccccc12` [Example 353], the MIC in the assay on Streptococcus pneumoniae (S. pneu, overnight 37° C.) was over 25 µg/mL; in assay [1] (VREF, overnight 37° C.), over 25 µg/mL; in assay [2] (overnight 37° C.), over 25 µg/mL.

With `COc1ccc2nc(-c3c[nH]c4ccc(Cl)cc34)ccc2c1` [Example 416], the MIC in the assay on Streptococcus pneumoniae (37° C., about 16 hours) was under 7 µg/mL; in assay [1] (16 h, 37° C., about 16 hours), over 25 µg/mL; in assay [2] (16 h, 37° C., about 16 hours), under 7 µg/mL.

`O=C(c1cc(-c2c[nH]c3ccc(Br)cc23)nc2ccc(Cl)cc12)N1CCNCC1` [Example 136]: the MIC (in the assay with Streptococcus pneumoniae (setting [3]); in assay [1] (setting [4]); in assay [2] (setting [4])) was under 7 µg/mL each time.

As for `Cc1[nH]c2ccccc2c1-c1ccc2cccc(C)c2n1` [Example 472], the MIC in the assay on Streptococcus pneumoniae (37° C., about 16 hours) is under 25 µg/mL; in assay [1] (16 h, 37° C., about 16 hours) it was over 25 µg/mL; in assay [2] (16 h, 37° C., about 16 hours) it was under 25 µg/mL.

In the case of `Cc1cccc2c(-c3ccc4cc(Cl)ccc4n3)cn(C)c12` [Example 217], the MIC with Streptococcus pneumoniae (S. pneu, overnight 37° C.) is under 7 µg/mL; in assay [1] (VREF, overnight 37° C.), under 25 µg/mL; in assay [2] (overnight 37° C.), under 25 µg/mL.

With `Cc1ccc2nc(-c3c[nH]c4ccc(O)cc34)ccc2c1` [Example 468], the minimal inhibitory concentration (MIC) in the assay with Streptococcus pneumoniae (37° C., about 16 hours) is over 25 µg/mL; in assay [1] (16 h, 37° C., about 16 hours) it was over 25 µg/mL; in assay [2] (16 h, 37° C., about 16 hours), 25 µg/mL (≈ 91.1 µM).

Take `CC(=O)Oc1cccc2[nH]cc(-c3ccc4cc(Cl)ccc4n3)c12` [Example 204]: the minimal inhibitory concentration (MIC) is under 7 µg/mL in the assay with Streptococcus pneumoniae (S. pneu, overnight 37° C.); under 25 µg/mL in assay [1] (VREF, overnight 37° C.); under 7 µg/mL in assay [2] (overnight 37° C.).

Consider `Clc1ccc2nc(-c3c[nH]c4cc(Cl)ccc34)ccc2c1` [Example 202], for which the minimal inhibitory concentration (MIC) in the assay with Streptococcus pneumoniae (S. pneu, overnight 37° C.) was under 7 µg/mL; in assay [1] (VREF, overnight 37° C.), over 25 µg/mL; in assay [2] (overnight 37° C.) it was under 7 µg/mL.

In the case of `CN(C)CCNCC#Cc1ccc2nc(-c3cn(C)c4ccc(Br)cc34)cc(C(=O)NCc3ccc(CN)cc3)c2c1` [Example 392], the minimal inhibitory concentration (MIC) with Streptococcus pneumoniae (S. pneu, overnight 37° C.) is under 7 µg/mL; in assay [1] (VREF, overnight 37° C.), under 7 µg/mL; in assay [2] (overnight 37° C.), under 7 µg/mL.

With `COc1ccc2nc(-c3c[nH]c4cc(Cl)ccc34)ccc2c1` [Example 414], the MIC was over 25 µg/mL with Streptococcus pneumoniae (37° C., about 16 hours); over 25 µg/mL in assay [1] (16 h, 37° C., about 16 hours); over 25 µg/mL in assay [2] (16 h, 37° C., about 16 hours).

Regarding `Cc1ccc2nc(-c3c[nH]c4c(C)cccc34)ccc2c1` [Example 467], the minimal inhibitory concentration (MIC) with Streptococcus pneumoniae (37° C., about 16 hours) was over 25 µg/mL; in assay [1] (16 h, 37° C., about 16 hours), over 25 µg/mL; in assay [2] (16 h, 37° C., about 16 hours), over 25 µg/mL.

As for `Cc1[nH]c2ccc(Cl)cc2c1-c1cc(Cl)c2ccc(Cl)cc2n1` [Example 473], the MIC in the assay with Streptococcus pneumoniae (37° C., about 16 hours) was under 7 µg/mL; in assay [1] (16 h, 37° C., about 16 hours) it was under 25 µg/mL; in assay [2] (16 h, 37° C., about 16 hours), under 7 µg/mL.

Consider `NCc1ccc(CNC(=O)c2cc(-c3c[nH]c4ccc(Br)cc34)nc3cc(Cl)c(C#CCN4CCc5ccccc5C4)cc23)cc1` [Example 281], for which the minimum inhibitory concentration (MIC) with Streptococcus pneumoniae (S. pneu, overnight 37° C.) is over 25 µg/mL; in assay [1] (VREF, overnight 37° C.) it was over 25 µg/mL; in assay [2] (overnight 37° C.), under 25 µg/mL.

As for `NCc1ccc(CNC(=O)c2cc(-c3c[nH]c4ccc(Cl)cc34)nc3ccc(I)cc23)cc1` [Example 224], the minimum inhibitory concentration (MIC) with Streptococcus pneumoniae (S. pneu, overnight 37° C.) was under 7 µg/mL; in assay [1] (VREF, overnight 37° C.), under 7 µg/mL; in assay [2] (overnight 37° C.), under 7 µg/mL.

For `NCC1CCC(CNC(=O)c2cc(-c3c[nH]c4ccc(Br)cc34)nc3c(Cl)c(Cl)ccc23)CC1` (stereo not drawn) [Example 277], the MIC in the assay with Streptococcus pneumoniae (S. pneu, overnight 37° C.) is under 7 µg/mL; in assay [1] (VREF, overnight 37° C.) it was under 7 µg/mL; in assay [2] (overnight 37° C.), under 7 µg/mL.

As for `NCc1ccc(CNC(=O)c2cc(-c3c[nH]c4ccc(Br)cc34)nc3cc(C#CCN4CC=CCC4)ccc23)cc1` [Example 304], the minimum inhibitory concentration (MIC) in the assay on Streptococcus pneumoniae (S. pneu, overnight 37° C.) was under 7 µg/mL; in assay [1] (VREF, overnight 37° C.) it was under 7 µg/mL; in assay [2] (overnight 37° C.), under 7 µg/mL.

As to `NCC(O)CNC(=O)c1cc(-c2c[nH]c3ccc(Br)cc23)nc2ccc(C#CCN3CCCCC3)cc12` (stereo not drawn) [Example 534], the minimal inhibitory concentration (MIC) in the assay with Streptococcus pneumoniae (37° C., about 16 hours) is under 7 µg/mL; in assay [1] (16 h, 37° C., about 16 hours), under 7 µg/mL; in assay [2] (16 h, 37° C., about 16 hours), under 7 µg/mL.

For the compound `Cn1cc(-c2cc(C(=O)NCCN)c3cc(C#CCN4CC=CC4)ccc3n2)c2cc(Br)ccc21` [Example 406], the minimal inhibitory concentration (MIC) is under 7 µg/mL in the assay with Streptococcus pneumoniae (37° C., about 16 hours); under 7 µg/mL in assay [1] (16 h, 37° C., about 16 hours); under 7 µg/mL in assay [2] (16 h, 37° C., about 16 hours).

In the case of `CCOC(=O)n1cc(-c2cc(C(=O)NCc3ccc(CN)cc3)c3cc(C#CCN4CCCCC4)ccc3n2)c2cc(Br)ccc21` [Example 337], the MIC in the assay on Streptococcus pneumoniae (S. pneu, overnight 37° C.) was over 25 µg/mL; in assay [1] (VREF, overnight 37° C.), over 25 µg/mL; in assay [2] (overnight 37° C.), over 25 µg/mL.

As to `Cn1cc(-c2cc(C(=O)NCc3ccc(CN)cc3)c3cc(Cl)ccc3n2)c2cc(Br)ccc21` [Example 365], the minimum inhibitory concentration (MIC) was under 7 µg/mL in the assay with Streptococcus pneumoniae (S. pneu, overnight 37° C.); under 7 µg/mL in assay [1] (VREF, overnight 37° C.); under 7 µg/mL in assay [2] (overnight 37° C.).

As to `NCC1CCC(CNC(=O)c2cc(-c3c[nH]c4ccc(Br)cc34)nc3cc(Cl)c(I)cc23)CC1` (stereo not drawn) [Example 244], the minimal inhibitory concentration (MIC) in the assay on Streptococcus pneumoniae (S. pneu, overnight 37° C.) is under 7 µg/mL; in assay [1] (VREF, overnight 37° C.), under 7 µg/mL; in assay [2] (overnight 37° C.), under 7 µg/mL.

Turning to `Cc1ccc2nc(-c3c(C)[nH]c4ccccc34)ccc2c1` [Example 466], the minimum inhibitory concentration (MIC) with Streptococcus pneumoniae (37° C., about 16 hours) is under 25 µg/mL; in assay [1] (16 h, 37° C., about 16 hours) it was over 25 µg/mL; in assay [2] (16 h, 37° C., about 16 hours), over 25 µg/mL.

Turning to `CC(C)(C)OC(=O)n1cc(-c2ccc3cc(I)ccc3n2)c2cc(Br)ccc21` [Example 362], the MIC was over 25 µg/mL in the assay on Streptococcus pneumoniae (S. pneu, overnight 37° C.); over 25 µg/mL in assay [1] (VREF, overnight 37° C.); over 25 µg/mL in assay [2] (overnight 37° C.).

With `OCc1cc(-c2c[nH]c3ccc(Br)cc23)nc2cc(Cl)c(C#CCN3CCCCC3)cc12` [Example 518], the MIC in the assay with Streptococcus pneumoniae (37° C., about 16 hours) is under 7 µg/mL; in assay [1] (16 h, 37° C., about 16 hours), under 7 µg/mL; in assay [2] (16 h, 37° C., about 16 hours), under 7 µg/mL.

Regarding `NCC1CCC(CNC(=O)c2cc(-c3c[nH]c4ccc(Br)cc34)nc3cc(I)ccc23)CC1` (stereo not drawn) [Example 251], the minimal inhibitory concentration (MIC) was under 7 µg/mL in the assay with Streptococcus pneumoniae (S. pneu, overnight 37° C.); under 7 µg/mL in assay [1] (VREF, overnight 37° C.); under 7 µg/mL in assay [2] (overnight 37° C.).

As to `Clc1ccc2nc(-c3c[nH]c4ccc(Br)cc34)c3c(c2c1)OCCC3` [Example 503], the minimal inhibitory concentration (MIC) in the assay on Streptococcus pneumoniae (37° C., about 16 hours) is under 25 µg/mL; in assay [1] (16 h, 37° C., about 16 hours), over 25 µg/mL; in assay [2] (16 h, 37° C., about 16 hours), under 7 µg/mL.

For `Cn1cc(-c2cc(C(=O)NCc3cccc(CN)c3)c3ccc(F)cc3n2)c2cc(Br)ccc21` [Example 327], the minimum inhibitory concentration (MIC) is under 7 µg/mL with Streptococcus pneumoniae (S. pneu, overnight 37° C.); over 25 µg/mL in assay [1] (VREF, overnight 37° C.); under 25 µg/mL in assay [2] (overnight 37° C.).

For `Clc1ccc2nc(-c3c[nH]c4ccc(Cl)cc34)ccc2c1` [Example 287], the MIC in the assay on Streptococcus pneumoniae (S. pneu, overnight 37° C.) was under 7 µg/mL; in assay [1] (VREF, overnight 37° C.), over 25 µg/mL; in assay [2] (overnight 37° C.), under 7 µg/mL.
